What was measured:
[1] = system: Sprague-Dawley rats; details: rat, in vivo, iv; SEM
[2] = system: Sprague-Dawley rats; details: rat, in vivo, iv
[3] = target: T1, human N-type Ca^2+ channels stably expressed in HEK293 cells (C2D7 cells) (Homo sapiens, UniProt Q00975); assay: cell-based
T1 construct: expressed in transfected cells
T1 sequence (Q00975 whole entry, looked up): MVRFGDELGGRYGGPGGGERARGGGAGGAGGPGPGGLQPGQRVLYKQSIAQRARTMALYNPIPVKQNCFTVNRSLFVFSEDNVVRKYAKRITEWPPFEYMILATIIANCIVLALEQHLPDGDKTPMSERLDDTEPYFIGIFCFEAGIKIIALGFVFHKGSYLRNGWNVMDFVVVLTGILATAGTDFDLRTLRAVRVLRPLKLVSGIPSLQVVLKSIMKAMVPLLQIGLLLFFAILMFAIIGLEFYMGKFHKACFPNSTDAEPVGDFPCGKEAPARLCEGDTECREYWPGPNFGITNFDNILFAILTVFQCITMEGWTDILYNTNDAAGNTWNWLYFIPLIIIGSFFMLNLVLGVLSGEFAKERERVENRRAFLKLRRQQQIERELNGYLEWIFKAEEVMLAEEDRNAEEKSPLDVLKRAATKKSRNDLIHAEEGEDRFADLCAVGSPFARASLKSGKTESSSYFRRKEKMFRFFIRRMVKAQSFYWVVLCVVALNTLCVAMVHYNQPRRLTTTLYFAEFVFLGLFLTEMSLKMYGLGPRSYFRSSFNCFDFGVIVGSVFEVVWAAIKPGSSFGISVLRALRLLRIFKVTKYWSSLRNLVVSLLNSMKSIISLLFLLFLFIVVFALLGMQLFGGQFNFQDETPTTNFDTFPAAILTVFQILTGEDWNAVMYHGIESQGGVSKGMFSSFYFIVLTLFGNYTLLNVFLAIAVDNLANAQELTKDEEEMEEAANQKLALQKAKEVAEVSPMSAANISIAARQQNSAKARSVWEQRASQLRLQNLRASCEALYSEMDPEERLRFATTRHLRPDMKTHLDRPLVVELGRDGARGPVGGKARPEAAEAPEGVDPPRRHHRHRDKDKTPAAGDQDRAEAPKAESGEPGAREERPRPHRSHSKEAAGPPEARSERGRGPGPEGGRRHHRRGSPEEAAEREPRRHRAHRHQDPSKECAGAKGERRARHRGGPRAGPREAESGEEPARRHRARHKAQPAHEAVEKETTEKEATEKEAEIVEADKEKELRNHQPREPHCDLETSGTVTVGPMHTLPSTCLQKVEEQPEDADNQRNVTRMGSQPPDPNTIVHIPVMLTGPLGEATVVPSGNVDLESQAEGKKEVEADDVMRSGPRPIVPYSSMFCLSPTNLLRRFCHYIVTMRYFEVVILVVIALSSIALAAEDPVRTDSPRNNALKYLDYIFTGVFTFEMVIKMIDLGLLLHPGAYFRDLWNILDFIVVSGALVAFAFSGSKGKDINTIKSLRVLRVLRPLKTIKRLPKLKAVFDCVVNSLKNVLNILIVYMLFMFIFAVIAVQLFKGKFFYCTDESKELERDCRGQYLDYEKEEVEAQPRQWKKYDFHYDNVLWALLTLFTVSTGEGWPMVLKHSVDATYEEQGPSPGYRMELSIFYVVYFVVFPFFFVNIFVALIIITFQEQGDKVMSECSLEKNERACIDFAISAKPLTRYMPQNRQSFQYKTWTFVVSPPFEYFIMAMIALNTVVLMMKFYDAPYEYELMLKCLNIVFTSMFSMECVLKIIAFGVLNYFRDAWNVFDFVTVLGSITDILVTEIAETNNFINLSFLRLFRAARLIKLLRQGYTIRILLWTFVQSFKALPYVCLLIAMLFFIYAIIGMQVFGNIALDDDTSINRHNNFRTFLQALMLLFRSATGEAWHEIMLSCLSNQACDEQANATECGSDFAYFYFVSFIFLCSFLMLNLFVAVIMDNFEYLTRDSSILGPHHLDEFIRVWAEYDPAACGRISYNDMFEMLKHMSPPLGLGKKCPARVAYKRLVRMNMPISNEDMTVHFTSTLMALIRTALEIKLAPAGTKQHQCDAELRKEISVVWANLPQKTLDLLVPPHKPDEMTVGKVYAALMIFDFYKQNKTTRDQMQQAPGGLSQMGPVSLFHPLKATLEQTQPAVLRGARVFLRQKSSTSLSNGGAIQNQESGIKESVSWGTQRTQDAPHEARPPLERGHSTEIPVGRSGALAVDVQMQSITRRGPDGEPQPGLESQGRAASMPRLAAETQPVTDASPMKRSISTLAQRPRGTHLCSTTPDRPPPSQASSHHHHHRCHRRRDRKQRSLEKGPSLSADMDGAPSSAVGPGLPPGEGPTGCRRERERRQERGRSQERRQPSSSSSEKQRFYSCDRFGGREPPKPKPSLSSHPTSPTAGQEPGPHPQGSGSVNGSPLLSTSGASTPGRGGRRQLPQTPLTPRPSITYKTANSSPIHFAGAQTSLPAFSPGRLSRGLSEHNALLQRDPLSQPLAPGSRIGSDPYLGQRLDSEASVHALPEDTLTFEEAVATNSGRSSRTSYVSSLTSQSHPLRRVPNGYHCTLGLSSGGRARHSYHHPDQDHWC

Row | Compound | mean arterial pressure after 60 min [1] [mmHg] | mean arterial pressure within 3 min after injection [1] [mmHg] | mean blood pressure 5 min after administration [2] [mmHg] | mean blood pressure after 5 h [2] | IC50 [3] [nM] | block of N-type Ca2+ currents [3] [%] | steady-state level to which the currents recovered after washout [3] [%]
1 | CC[C@H](C)[C@@H]1NC(=O)[C@H](CCCNC(=N)N)NC(=O)[C@H](CO)NC(=O)[C@@H]2CSSC[C@@H]3NC(=O)[C@H](CO)NC(=O)CNC(=O)[C@H]([C@@H](C)O)NC(=O)[C@H](CSSC[C@H](N)C(=O)N[C@@H](CCCCN)C(=O)NCC(=O)N[C@@H]([C@@H](C)O)C(=O)NCC(=O)N[C@@H](CCCCN)C(=O)N[C@@H](CO)C(=O)N2)NC(=O)[C@H](CSSC[C@@H](C(N)=O)NC(=O)[C@H](CCCCN)NC(=O)CNC(=O)[C@H](CO)NC(=O)[C@H](CCCNC(=N)N)NC3=O)NC(=O)[C@H](CC(N)=O)NC(=O)[C@H](Cc2ccc(O)cc2)NC(=O)[C@H](C)NC1=O [CTx-FVIA, ω-conotoxin FVIA] | 79.7 ± 4.1 | 56.4 ± 1.0 | 78.9 ± 3.1 | nearly recovered | 11.5 ± 1.4 | 91.25 ± 1.8 | 78.4 ± 5.8
2 | CSCC[C@@H]1NC(=O)[C@H](CC(C)C)NC(=O)[C@H](CCCNC(=N)N)NC(=O)[C@H](CO)NC(=O)[C@@H]2CSSC[C@@H]3NC(=O)[C@H](CO)NC(=O)CNC(=O)[C@H]([C@@H](C)O)NC(=O)[C@H](CSSC[C@H](N)C(=O)N[C@@H](CCCCN)C(=O)NCC(=O)N[C@@H](CCCCN)C(=O)NCC(=O)N[C@@H](C)C(=O)N[C@@H](CCCCN)C(=O)N2)NC(=O)[C@H](CSSC[C@@H](C(N)=O)NC(=O)[C@H](CCCCN)NC(=O)CNC(=O)[C@H](CO)NC(=O)[C@H](CCCNC(=N)N)NC3=O)NC(=O)[C@H](CC(=O)O)NC(=O)[C@H](Cc2ccc(O)cc2)NC1=O [CTx-MVIIA, ω-Conotoxin (CTx)-MVIIA, reference compound] | 65.3 ± 1.9 | 57.3 ± 3.1 | 77.5 ± 1.7 | 87.4 ± 2.6 mmHg | – | 87.5 ± 1.9 | 19.8 ± 3.8
